Results on one sequence are retold here after patent publication US9121022B2, “Method for controlling herbicide-resistant plants” (priority 2010, dated 2015).

The subject of this data set is Nicotiana benthamiana plants (endogenous PDS, EPSPS, RuBisCO genes). In words: PDS, EPSPS or RuBisCO anti-sense polynucleotides on Nicotiana benthamiana, plant height and phenotype (Example 33). The data set is classed as in vivo. An excerpt: An anti-sense polynucleotide with the sequence […] (SEQ ID NO:34) was designed for the endogenous Nicotiana benthamiana phytoene desaturase (PDS) gene, which has the cDNA sequence fragments […] […] (SEQ ID NO:38). Anti-sense polynucleotides with the sequences […] (SEQ ID NO:279), […] (SEQ ID NO:280), […] (SEQ ID NO:281), […] (SEQ ID NO:282), […] (SEQ ID NO:283), and […] (SEQ ID NO:284) were designed for the endogenous Nicotiana benthamiana 5-enolpyruvylshikimate-3-phosphate synthase (EPSPS) gene, based on the Nicotiana benthamiana EPSPS cDNA sequence […] […] (SEQ ID NO:285), […] […] (SEQ ID NO:286), and […] […] (SEQ ID NO:287). Anti-sense polynucleotides with the sequences […] (AK195, RBCS—1-2-3-4, SEQ ID NO:288), […] (AK196, RBCS—1-2-3-4, SEQ ID NO:289), […] (AK197, RBCS—1-2-3-4, SEQ ID NO:290), […] (AK198, RBCS—1-2, SEQ ID NO:291), […] (AK199, RBCS—1-2, SEQ ID NO:292), […] (AK200, RBCS—3-4, SEQ ID NO:293), […] (AK201, RBCS—3-4, SEQ ID NO:294), and […] (AK202, RBCS—3-4, SEQ ID NO:295) were designed for the endogenous Nicotiana benthamiana ribulose-1,5-bisphosphate carboxylase oxygenase (RuBisCO) gene, based on the Nicotiana benthamiana chloroplastic RuBisCO small chain 2A cDNA sequence fragments • […] […]

As for “CATCTCCTTTAATTGTACTGC (DNA, backbone not given here) [PDS 21-mer anti-sense ssDNA]”, the “plant height (FIGS. 36A-36C)” value (12 days (PDS and EPSPS) or 10 days (RuBisCO) after treatment) is on record as “severe stunting”. For the same sequence, the other phenotype entry (PDS 25 nanomoles, EPSPS and RuBisCO 50 nanomoles of each polynucleotide per plant) is reported as “bleaching”.
